From patent US8329696B2, “Solid state forms of sitagliptin salts” (Teva Pharmaceuticals Industries Ltd., priority 2009, dated 2012)

Test: Retest of solid form by PXRD after storage
Type: physicochemical
Details: after 1 month storage
Experimental: Unless recited otherwise, X-Ray powder diffraction data was obtained by using methods known in the art using a SCINTAG powder X-Ray diffractometer model X'TRA equipped with a solid-state detector. Copper radiation of 1.5418 Å was used. A round aluminum sample holder with zero background was used. The scanning parameters included: range: 2-40 degrees two-theta; scan mode: continuous scan; step size: 0.05 deg.; and a rate of 3 deg/min.
The product was isolated by vacuum filtration and dried at 40° C. for 16 hours to obtain STG lactate crystalline form L3.

SMILES: CC(O)C(=O)O.N[C@@H](CC(=O)N1CCn2c(nnc2C(F)(F)F)C1)Cc1cc(F)c(F)cc1F [Form L3, Sitagliptin lactate]
- Polymorphic form found by PXRD after storage: transform to form L1
